The target in assay [1] is T1, rNPFF-1 (Rattus norvegicus, UniProt Q9EP86).
T1 construct: expressed in transfected cells
Description: Radioligand binding assay, competitive displacement of [125I]1DMeNPFF at cloned NPFF receptors. To be noted: cloned rat receptor.

In assay [2] the target is T1, rNPFF-1. Description: Functional activity (EC50 and intrinsic activity relative to NPFF). To be noted: for Functional Activity rNPFF-1 I.A. %: intrinsic activity as percentage of maximal response by NPFF; for EC50: tested 0.001 nM to 3600 nM. The class given is cell-based.
Description: (§1) The data shown are representative of at least two independent experiments.
Assay [3] has as its target T2, rNPFF-2 (Rattus norvegicus, UniProt Q9EQD2).
T2 construct: expressed in transfected cells
The description is as above. The class given is cell-based. The conditions noted are these: for Functional Activity rNPFF-2 I.A. %: intrinsic activity as percentage of maximal response by NPFF.
Description: as §1

In assay [4] the target is T2, rNPFF-2. Nature of the assay: Radioligand binding assay, competitive displacement of [125I]1DMeNPFF at cloned NPFF receptors. To be noted: cloned rat receptor.
The subject of assay [5] is rat bladder. Nature of the assay: Distension-induced rhythmic contraction (DIRC) model, micturition reflex. Type of assay: in vivo. The conditions noted are these: i.v.; for inhibition of bladder activity, persisted for: anesthetized rat, figure legend (FIG. 1, FIG. 2). The procedure: The effects of compounds on the micturition reflex were assessed in the “distension-induced rhythmic contraction” (DIRC) model (also called “volume-induced rhythmic contraction” model) in rats, as described in previous publications (e.g. Maggi, et al., 1987; Morikawa, et al., 1992; Guarneri, et al., 1993). This model is widely considered to be predictive for the actions of drugs to treat human urge incontinence (also referred to as detrusor instability or unstable bladder). Examples of drugs that are active in this model which also are used therapeutically in humans include oxybutynin and baclofen (Morikawa et al, 1992); imipramine and nortriptyline (36); and nifedipine and terodiline (37).
Female Sprague Dawley rats weighing approximately 300 g were anesthetized with subcutaneous urethane ([…]). The trachea was cannulated with PE240 tubing to provide a clear airway throughout the experiment. A midline abdominal incision was made and the left and right ureters were isolated. The ureters were ligated distally (to prevent escape of fluids from the bladder) and cannulated proximally with PE10 tubing. The incision was closed using 4-0 silk sutures, leaving the PE10 lines routed to the exterior for the elimination of urine. The bladder was canulated via the transurethral route using PE50 tubing inserted 2.5 cm beyond the urethral opening. This cannula was secured to the tail using tape and connected to a pressure transducer. To prevent leakage from the bladder, the cannula was tied tightly to the exterior urethral opening using 4-0 silk.
To initiate the micturition reflex, the bladder was first emptied by applying pressure to the lower abdomen, and then filled with normal saline in 100 μL increments (maximum=2 ml) until spontaneous bladder contractions occurred (typically 20-40 mmHg) at a rate of one contraction every 2 to 3 minutes. Once a regular rhythm was established, vehicle (saline) or test compounds were administered i.v. to examine their effects on bladder activity. The effect of a compound which inhibited the micturition reflex was expressed as its “disappearance time”, defined as the time between successive bladder contractions in the presence of the test compound minus the time between contractions before compound administration.
Female Sprague Dawley rats weighing approximately 300 g were anesthetized with subcutaneous urethane (1.2 g/kg). The trachea was cannulated with PE240 tubing to provide a clear airway throughout the experiment. A midline abdominal incision was made and the left and right ureters were isolated. The ureters were ligated distally (to prevent escape of fluids from the bladder) and cannulated proximally with PE10 tubing. […]

The mark [6] stands for this setting: tested 0.001 nM to 3600 nM, read-out: Functional Activity rNPFF-2 EC50.
[7] abbreviates: rat cloned NPFF receptors, by IA and Ki.

Like-named read-outs stand apart in the source and are kept apart here.

T1 sequence (Q9EP86 whole entry): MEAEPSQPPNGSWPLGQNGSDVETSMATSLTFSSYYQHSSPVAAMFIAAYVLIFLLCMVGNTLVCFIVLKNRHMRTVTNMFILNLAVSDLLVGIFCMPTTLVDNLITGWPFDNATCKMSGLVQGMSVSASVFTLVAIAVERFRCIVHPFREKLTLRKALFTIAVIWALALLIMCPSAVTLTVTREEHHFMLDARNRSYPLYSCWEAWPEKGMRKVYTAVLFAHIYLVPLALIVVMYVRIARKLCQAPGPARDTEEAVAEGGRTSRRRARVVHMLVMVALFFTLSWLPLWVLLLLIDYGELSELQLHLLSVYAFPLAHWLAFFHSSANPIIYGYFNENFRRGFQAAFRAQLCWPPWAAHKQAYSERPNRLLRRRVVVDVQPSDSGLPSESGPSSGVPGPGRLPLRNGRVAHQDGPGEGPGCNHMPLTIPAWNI
T2 sequence (Q9EQD2 whole entry): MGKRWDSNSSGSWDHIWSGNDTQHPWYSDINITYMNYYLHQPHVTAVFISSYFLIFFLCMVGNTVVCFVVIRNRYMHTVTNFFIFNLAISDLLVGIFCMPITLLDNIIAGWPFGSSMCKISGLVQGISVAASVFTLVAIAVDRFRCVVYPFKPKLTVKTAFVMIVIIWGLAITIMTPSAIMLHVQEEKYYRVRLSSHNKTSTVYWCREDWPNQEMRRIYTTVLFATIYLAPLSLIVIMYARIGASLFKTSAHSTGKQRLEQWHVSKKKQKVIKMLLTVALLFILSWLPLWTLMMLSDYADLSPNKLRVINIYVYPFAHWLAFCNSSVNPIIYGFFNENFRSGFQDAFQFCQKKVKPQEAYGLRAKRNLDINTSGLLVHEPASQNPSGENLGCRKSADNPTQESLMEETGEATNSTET

On to `N=C(N)NCCC[C@H](NS(=O)(=O)c1c(F)c(F)c(F)c(F)c1F)C(=O)N[C@@H](Cc1ccccc1)C(N)=O` [Compound 1024], for which the Ki was 486 nM in assay [1] and 5400 nM in assay [4]. The “Functional Activity rNPFF-1 I.A. %” value in assay [2] came out at 69%. In addition, the EC50 in assay [2] is 720 nM; in assay [3] (setting [6]) it was greater than 3160 nM. In addition, the “Functional Activity rNPFF-2 I.A. %” value in assay [3] is given as 43%.

On to `COc1ccc(Br)cc1S(=O)(=O)N[C@@H](CCCNC(=N)N)C(=O)N[C@@H](Cc1ccccc1)C(N)=O` [Compound 1025], for which the Ki in assay [1] amounted to 328 nM; in assay [4] it was 4120 nM. The “Functional Activity rNPFF-1 I.A. %” value in assay [2] is listed as 78%. The EC50 in assay [2] is 596 nM; in assay [3] (setting [6]) it was greater than 3160 nM. Also, the “Functional Activity rNPFF-2 I.A. %” value in assay [3] is recorded as 33%.

Regarding `N=C(N)NCCC[C@H](NS(=O)(=O)c1ccccc1[N+](=O)[O-])C(=O)N[C@@H](Cc1ccccc1)C(N)=O` [Compound 1026], the Ki in assay [1] is 535 nM; in assay [4], 3500 nM. Moreover, in assay [2], the “Functional Activity rNPFF-1 I.A. %” value is reported as 79%. Moreover, the half-maximal effective concentration (EC50) in assay [2] was 412 nM; in assay [3] (setting [6]) it was greater than 3160 nM. Also, the “Functional Activity rNPFF-2 I.A. %” value in assay [3] amounted to 59%.

On to `N#Cc1ccccc1S(=O)(=O)N[C@@H](CCCNC(=N)N)C(=O)N[C@@H](Cc1ccccc1)C(N)=O` [Compound 1027], for which the values for the Ki in assay [1] and in assay [4] were 515 nM and 6170 nM, respectively. Besides, the half-maximal effective concentration (EC50) in assay [2] was 183 nM; in assay [3] (setting [6]), greater than 3160 nM.

With `N=C(N)NCCC[C@@H](NS(=O)(=O)c1ccc(F)cc1)C(=O)N[C@@H](Cc1ccccc1)C(N)=O` [Compound 1028], the Ki stood at 1280 nM in assay [1] and 8060 nM in assay [4]. Further, the 50% effective concentration (EC50) in assay [2] is 404 nM; in assay [3] (setting [6]) it was 1580 nM. Besides, the “Functional Activity rNPFF-2 I.A. %” value in assay [3] is 62%.

Turning to `N=C(N)NCCC[C@H](NS(=O)(=O)c1ccc2ccccc2c1)C(=O)N[C@H](Cc1ccccc1)C(N)=O` [Compound 1029], the inhibitory constant (Ki) in assay [1] came to 399 nM; in assay [4], 2690 nM. Further, the “Functional Activity rNPFF-1 I.A. %” value in assay [2] stood at 30%. In addition, the EC50 was 477 nM in assay [2] and greater than 3160 nM in assay [3] (setting [6]). In addition, the “Functional Activity rNPFF-2 I.A. %” value in assay [3] came to 86%.

Consider `N=C(N)NCCC[C@H](NS(=O)(=O)c1c(F)cccc1F)C(=O)N[C@H](Cc1ccccc1)C(N)=O` [Compound 1032], for which the Ki is 1290 nM in assay [1] and greater than 10000 nM in assay [4]. Besides, in assay [2], the “Functional Activity rNPFF-1 I.A. %” value came to 47%. The EC50 was 644 nM in assay [2] and 2760 nM in assay [3] (setting [6]). Also, the “Functional Activity rNPFF-2 I.A. %” value in assay [3] turned out to be 61%.

Turning to `N=C(N)NCCC[C@H](NS(=O)(=O)c1ccc(F)cc1)C(=O)N[C@H](Cc1ccccc1)C(N)=O` [Compound 1033], the figures for the Ki in assay [1] and in assay [4] were 458 nM and greater than 10000 nM, respectively. In addition, the “Functional Activity rNPFF-1 I.A. %” value in assay [2] is on record as 42%. Moreover, the EC50 in assay [2] worked out at 1600 nM; in assay [3] (setting [6]), 1940 nM. For the same compound, in assay [3], the “Functional Activity rNPFF-2 I.A. %” value is reported as 57%.

For `N=C(N)NCCC[C@H](NS(=O)(=O)c1ccc([N+](=O)[O-])cc1[N+](=O)[O-])C(=O)N[C@@H](Cc1ccccc1)C(N)=O` [Compound 2002], the inhibition constant Ki in assay [1] was determined as 1390 nM. Besides, in assay [2], the “Functional Activity rNPFF-1 I.A. %” value came out at 34%. For the same compound, in assay [3], the half-maximal effective concentration (EC50) is greater than 10000 nM and the “Functional Activity rNPFF-2 I.A. %” value stood at 05%. Moreover, in assay [4], the inhibition constant (Ki) is 5490 nM.

`N=C(N)NCCC[C@@H](NS(=O)(=O)c1cccc2ccccc12)C(=O)N[C@@H](Cc1ccccc1)C(N)=O` [Compound 3001]: the Ki in assay [1] turned out to be 46 nM; in assay [4] it was 2860 nM. For the same compound, in assay [2], the “Functional Activity rNPFF-1 I.A. %” value is on record as 1%. Also, in assay [2] (setting [7]), the “classification agonist/antagonist at NPFF1 receptors” value is “antagonist (an antagonist has a Ki≦1.2 μM and an intrinsic activity (IA)≦15%)”. Further, the half-maximal effective concentration (EC50) was greater than 10000 nM in assay [2] and 378 nM in assay [3] (setting [6]). In addition, the “Functional Activity rNPFF-2 I.A. %” value in assay [3] is recorded as 79%. Besides, the “classification agonist/antagonist at NPFF2 receptors” value in assay [3] (setting [7]) is “agonist (an agonist has an intrinsic activity (IA)>15%)”.

In the case of `Cc1ccc2c(C)cc(NC(=N)N)nc2c1` [N-(4,7-dimethyl-2-quinolinyl)guanidine], in assay [5] (3 mg/kg), the “inhibition of distention induced contractions of the rat bladder” value is on record as “complete inhibition”. Besides, in assay [5], the “inhibition of bladder activity, persisted for” value came out at 12 min.

`Cc1cc(NC(=N)N)nc2ccc(Cl)cc12` [N-(6-chloro-4-methyl-2-quinolinyl)guanidine]: the “inhibition of distention induced contractions of the rat bladder” value in assay [5] (1 mg/kg) is given as “complete inhibition”. In assay [5], the “inhibition of bladder activity, persisted for” value is reported as 35 min.

Regarding `CN(C)c1cccc2c(S(=O)(=O)N[C@@H](CCCN=C(N)N)C(=O)N[C@@H](Cc3ccccc3)C(N)=O)cccc12` [dansyl-RFamide, reference compound], the Ki came to 88 nM in assay [1] and 2310 nM in assay [4]. Moreover, the “Functional Activity rNPFF-1 I.A. %” value in assay [2] is reported as 106%. The concentration giving a half-maximal response (EC50) in assay [2] is 524 nM; in assay [3] (setting [6]), 2520 nM. Also, the “Functional Activity rNPFF-2 I.A. %” value in assay [3] is 96%.

Broadly, the Ki is a measure of affinity in units of concentration, obtained from inhibition or displacement. The low end stands for tighter binding, the high end for weaker binding. Usually EC50 stands for the concentration at which the effect is half-maximal.
